Test results taken from PubChem BioAssay (NCI).
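GI50: concentration for 50% inhibition of growth. TGI marks complete inhibition of growth.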

Assays:
Test in all cases: NCI tumour cell line growth inhibition, 384-well format
786-0 renal = test system: 786-0 renal
A549 NSCLC = test system: A549 NSCLC
ACHN renal = test system: ACHN renal
BT-549 breast = test system: BT-549 breast
CAKI-1 renal = test system: CAKI-1 renal
COLO 205 colon = test system: COLO 205 colon
DU-145 prostate = test system: DU-145 prostate
EKVX NSCLC = test system: EKVX NSCLC
HCT-116 colon = test system: HCT-116 colon
HCT-15 colon = test system: HCT-15 colon
HL-60(TB) leukemia = test system: HL-60(TB) leukemia
HOP-92 NSCLC = test system: HOP-92 NSCLC
HT29 colon = test system: HT29 colon
IGROV1 ovarian = test system: IGROV1 ovarian
K-562 leukemia = test system: K-562 leukemia
KM12 colon = test system: KM12 colon
LOX IMVI melanoma = test system: LOX IMVI melanoma
MALME-3M melanoma = test system: MALME-3M melanoma
MCF7 breast = test system: MCF7 breast
MDA-MB-231 breast = test system: MDA-MB-231 breast
MDA-MB-435 melanoma = test system: MDA-MB-435 melanoma
MDA-MB-468 breast = test system: MDA-MB-468 breast
MOLT-4 leukemia = test system: MOLT-4 leukemia
NCI-H226 lung = test system: NCI-H226 lung
NCI-H23 lung = test system: NCI-H23 lung
NCI-H322M lung = test system: NCI-H322M lung
NCI-H460 NSCLC = test system: NCI-H460 NSCLC
NCI-H522 lung = test system: NCI-H522 lung
NCI/ADR-RES ovarian = test system: NCI/ADR-RES ovarian
OVCAR-4 ovarian = test system: OVCAR-4 ovarian
OVCAR-5 ovarian = test system: OVCAR-5 ovarian
OVCAR-8 ovarian = test system: OVCAR-8 ovarian
RPMI-8226 leukemia = test system: RPMI-8226 leukemia
RXF 393 renal = test system: RXF 393 renal
SF-268 CNS = test system: SF-268 CNS
SK-MEL-28 melanoma = test system: SK-MEL-28 melanoma
SK-MEL-5 melanoma = test system: SK-MEL-5 melanoma
SN12C renal = test system: SN12C renal
SNB-19 CNS = test system: SNB-19 CNS
SNB-75 CNS = test system: SNB-75 CNS
SR leukemia = test system: SR leukemia
SW-620 colon = test system: SW-620 colon
TK-10 renal = test system: TK-10 renal
U251 glioblastoma = test system: U251 glioblastoma
UACC-257 melanoma = test system: UACC-257 melanoma
UACC-62 melanoma = test system: UACC-62 melanoma
UO-31 renal = test system: UO-31 renal

For Cc1cc([C@H](C)Nc2nccc(N3C(=O)OC[C@@H]3[C@H](C)F)n2)ncc1-c1ccnc(C(F)(F)F)c1, the GI50 ([…]-0 renal) was 31.3 µM, the TGI (786-0 renal) was > 100 µM and the GI50 (A549 NSCLC) was 41.1 µM. For the same compound, the TGI (A549 NSCLC) was > 100 µM, the GI50 (ACHN renal) was 40.2 µM and the TGI (ACHN renal) was > 100 µM. For the same compound, the GI50 (BT-549 breast) was 28 µM, the TGI (BT-549 breast) was > 100 µM and the GI50 (CAKI-1 renal) was 34.4 µM. The TGI (CAKI-1 renal) was > 100 µM, the GI50 (COLO 205 colon) was 64.1 µM and the TGI (COLO 205 colon) was > 100 µM. For the same compound, the GI50 (DU-145 prostate) was 41.7 µM, the TGI (DU-145 prostate) was > 100 µM and the GI50 (EKVX NSCLC) was 11.2 µM. For the same compound, the TGI (EKVX NSCLC) was 98.2 µM, the GI50 (HCT-116 colon) was 21 µM and the TGI (HCT-116 colon) was 96.7 µM. For the same compound, the GI50 (HCT-15 colon) was 33.9 µM, the TGI (HCT-15 colon) was > 100 µM and the GI50 (HL-60(TB) leukemia) was 17.5 µM. The TGI (HL-60(TB) leukemia) was 31.3 µM, the GI50 (HOP-92 NSCLC) was 29.2 µM and the TGI (HOP-92 NSCLC) was > 100 µM. For the same compound, the GI50 (HT29 colon) was 31.7 µM, the TGI (HT29 colon) was > 100 µM and the GI50 (IGROV1 ovarian) was 28.3 µM. For the same compound, the TGI (IGROV1 ovarian) was > 100 µM, the GI50 (K-562 leukemia) was 8.88 µM and the TGI (K-562 leukemia) was > 100 µM. The GI50 (KM12 colon) was 40.1 µM, the TGI (KM12 colon) was > 100 µM and the GI50 (LOX IMVI melanoma) was 53.1 µM. The TGI (LOX IMVI melanoma) was > 100 µM, the GI50 (MALME-3M melanoma) was 28.3 µM and the TGI (MALME-3M melanoma) was > 100 µM. The GI50 (MCF7 breast) was 25.8 µM, the TGI (MCF7 breast) was > 100 µM and the GI50 (MDA-MB-231 breast) was 46.4 µM. The TGI (MDA-MB-231 breast) was > 100 µM, the GI50 (MDA-MB-435 melanoma) was 52.7 µM and the TGI (MDA-MB-435 melanoma) was > 100 µM. For the same compound, the GI50 (MDA-MB-468 breast) was 4.43 µM, the TGI (MDA-MB-468 breast) was 24.5 µM and the GI50 (MOLT-4 leukemia) was 12.5 µM. The TGI (MOLT-4 leukemia) was 25.3 µM, the GI50 (NCI-H226 lung) was 25.3 µM and the TGI (NCI-H226 lung) was > 100 µM. For the same compound, the GI50 (NCI-H23 lung) was 8.03 µM, the TGI (NCI-H23 lung) was > 100 µM and the GI50 (NCI-H322M lung) was 41.5 µM. The TGI (NCI-H322M lung) was > 100 µM, the GI50 (NCI-H460 NSCLC) was 37.1 µM and the TGI (NCI-H460 NSCLC) was > 100 µM. For the same compound, the GI50 (NCI-H522 lung) was 13.5 µM, the TGI (NCI-H522 lung) was 58.7 µM and the GI50 (NCI/ADR-RES ovarian) was 16.2 µM. The TGI (NCI/ADR-RES ovarian) was 94.4 µM, the GI50 (OVCAR-4 ovarian) was 29.6 µM and the TGI (OVCAR-4 ovarian) was > 100 µM. The GI50 (OVCAR-5 ovarian) was 53.9 µM, the TGI (OVCAR-5 ovarian) was > 100 µM and the GI50 (OVCAR-8 ovarian) was 31.6 µM. The TGI (OVCAR-8 ovarian) was > 100 µM, the GI50 (RPMI-8226 leukemia) was 7.2 µM and the TGI (RPMI-8226 leukemia) was 21.2 µM. It also gave a GI50 (RXF 393 renal) of 15.7 µM, a TGI (RXF 393 renal) of 76.5 µM and a GI50 (SF-268 CNS) of 68.6 µM. For the same compound, the TGI (SF-268 CNS) was > 100 µM, the GI50 (SK-MEL-28 melanoma) was > 100 µM and the TGI (SK-MEL-28 melanoma) was > 100 µM. The GI50 (SK-MEL-5 melanoma) was 10.2 µM, the TGI (SK-MEL-5 melanoma) was 25.4 µM and the GI50 (SN12C renal) was 45.5 µM. The TGI (SN12C renal) was > 100 µM, the GI50 (SNB-19 CNS) was 42.7 µM and the TGI (SNB-19 CNS) was > 100 µM. For the same compound, the GI50 (SNB-75 CNS) was 29.7 µM, the TGI (SNB-75 CNS) was > 100 µM and the GI50 (SR leukemia) was 11.1 µM. For the same compound, the TGI (SR leukemia) was 25.4 µM, the GI50 (SW-620 colon) was 61 µM and the TGI (SW-620 colon) was > 100 µM. The GI50 (TK-10 renal) was 27.8 µM, the TGI (TK-10 renal) was > 100 µM and the GI50 (U251 glioblastoma) was 36.4 µM. For the same compound, the TGI (U251 glioblastoma) was > 100 µM, the GI50 (UACC-257 melanoma) was 16.6 µM and the TGI (UACC-257 melanoma) was 51.1 µM. For the same compound, the GI50 (UACC-62 melanoma) was 52.2 µM, the TGI (UACC-62 melanoma) was > 100 µM and the GI50 (UO-31 renal) was 18.8 µM. For the same compound, the TGI (UO-31 renal) was > 100 µM.
